Test results taken from US20230365584A1, “HETEROCYCLIC PERICONDENSED CDC7 KINASE INHIBITORS FOR THE TREATMENT OF CANCER” (SCHRÖDINGER, INC., priority 2020, published 2023).

Target: Full length human CDC7 protein co-expressed with DBF4 (Homo sapiens (Human), UniProt O00311)
Assay: CDC7 kinase biochemical assay (ADP-Glo, PDKtide substrate)
Conditions: 0.1 nM CDC7/DBF4, 1 uM ATP, 10 uM PDKtide, 4 h
Experimental: CDC7 Kinase Biochemical Assay Protocol:
Full length human CDC7 protein co-expressed with DBF4 was purchased from SignalChem (China). CDC7 kinase activity was determined with PDKtide (SignalChem) as a substrate and by measuring ADP production using the ADP-Glo™ Kinase Assay kit (Promega) following the manufacturers instructions. The kinase reaction was performed using the following conditions: Buffer: 40 mM Tris pH 7.5, 20 mM MgCl2, 0.1 mg/ml BSA and 50 uM DTT. Final reaction mix contained 0.1 nM CDC7/DBF4, 1 uM ATP and 10 uM PDKtide. The kinase reaction time was 4 h. The ADP-Glo signal was measured using an EnVision plate reader (PerkinELmer).
Percent inhibition of CDC7 kinase activity was calculated based on the following formula:
[formula] • Ssample: the signal of compounds • SHigh Ctrl: the signal of high control (DMSO) • SLow Ctrl: the signal of low control (positive control CDC7 inhibitor)

Sequence of Full length human CDC7 protein co-expressed with DBF4 (O00311 whole entry): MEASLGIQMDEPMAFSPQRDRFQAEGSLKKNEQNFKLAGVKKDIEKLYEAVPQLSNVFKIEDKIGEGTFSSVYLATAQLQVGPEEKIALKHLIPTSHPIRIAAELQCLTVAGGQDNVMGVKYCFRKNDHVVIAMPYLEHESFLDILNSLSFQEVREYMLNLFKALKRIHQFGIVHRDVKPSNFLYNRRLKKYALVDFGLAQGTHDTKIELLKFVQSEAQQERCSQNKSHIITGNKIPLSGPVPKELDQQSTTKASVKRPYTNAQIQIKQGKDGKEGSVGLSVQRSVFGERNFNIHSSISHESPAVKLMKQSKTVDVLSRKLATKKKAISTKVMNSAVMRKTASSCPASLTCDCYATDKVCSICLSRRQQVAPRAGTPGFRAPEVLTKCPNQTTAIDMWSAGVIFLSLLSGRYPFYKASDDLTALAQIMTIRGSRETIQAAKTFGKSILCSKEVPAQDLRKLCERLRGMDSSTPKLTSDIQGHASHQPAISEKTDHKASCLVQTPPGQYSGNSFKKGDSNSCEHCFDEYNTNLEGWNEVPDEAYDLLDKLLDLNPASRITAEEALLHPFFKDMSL
Sequence of Full length human CDC7 protein co-expressed with DBF4 (Q9UBU7 whole entry partner): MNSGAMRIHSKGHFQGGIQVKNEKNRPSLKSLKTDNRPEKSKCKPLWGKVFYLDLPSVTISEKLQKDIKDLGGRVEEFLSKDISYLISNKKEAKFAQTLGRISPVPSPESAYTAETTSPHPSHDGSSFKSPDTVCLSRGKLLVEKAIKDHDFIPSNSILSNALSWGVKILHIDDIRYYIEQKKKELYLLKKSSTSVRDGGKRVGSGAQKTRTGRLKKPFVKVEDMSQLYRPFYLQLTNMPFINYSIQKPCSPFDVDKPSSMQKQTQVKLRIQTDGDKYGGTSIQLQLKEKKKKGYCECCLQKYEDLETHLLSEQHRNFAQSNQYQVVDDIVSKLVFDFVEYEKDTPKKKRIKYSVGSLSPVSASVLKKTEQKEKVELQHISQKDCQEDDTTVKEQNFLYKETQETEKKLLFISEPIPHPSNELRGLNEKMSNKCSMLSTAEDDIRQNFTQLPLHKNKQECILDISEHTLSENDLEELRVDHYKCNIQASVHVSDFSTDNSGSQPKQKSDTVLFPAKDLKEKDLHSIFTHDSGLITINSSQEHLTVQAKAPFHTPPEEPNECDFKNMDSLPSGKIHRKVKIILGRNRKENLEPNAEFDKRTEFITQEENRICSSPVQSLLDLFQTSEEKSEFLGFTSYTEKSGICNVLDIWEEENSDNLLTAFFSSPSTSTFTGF

Going from `COc1ccc(CNCc2[nH]c(=O)c3sc(-c4ccncc4)c4c3c2CCCO4)cc1` [Example 16, 5-(((4-methoxybenzyl)amino)methyl)-1-(pyridin-4-yl)-4,6,7,8-tetrahydro-3H-9-oxa-2-thia-4-azabenzo[cd]azulen-3-one] to `O=c1[nH]c(Cn2cccn2)c2c3c(c(-c4ccncc4)sc13)OCCC2` [Example 21, 7-(pyrazol-1-ylmethyl)-2-(4-pyridyl)-12-oxa-3-thia-6-azatricyclo[6.4.1.0^4,13]trideca-1,4(13),7-trien-5-one], the IC50 falls from no less than 10 nM to less than 1 nM.

Compared with `NCc1[nH]c(=O)c2sc(-c3cn[nH]c3)c3c2c1CCCO3` [Example 17, 7-(aminomethyl)-2-(1H-pyrazol-4-yl)-12-oxa-3-thia-6-azatricyclo[6.4.1.04,13]trideca-1,4(13),7-trien-5-one], `N#CCc1[nH]c(=O)c2sc(-c3cn[nH]c3)c3c2c1CCCO3` [Example 75, 2-(3-oxo-1-(1H-pyrazol-4-yl)-4,6,7,8-tetrahydro-3H-9-oxa-2-thia-4-azabenzo[cd]azulen-5-yl)acetonitrile] is lower in IC50: 1 to 10 nM for the first, less than 1 nM for the second.

`O=c1[nH]c(Cn2cccn2)c2c3c(c(-c4cn[nH]c4)sc13)OCCC2` [Example 18, 2-(1H-pyrazol-4-yl)-7-(pyrazol-1-ylmethyl)-12-oxa-3-thia-6-azatricyclo[6.4.1.04,13]trideca-1,4(13),7-trien-5-one] and `O=c1[nH]c(Cn2ccnc2)c2c3c(c(-c4cn[nH]c4)sc13)OCCC2` [Example 22, 7-(imidazol-1-ylmethyl)-2-(1H-pyrazol-4-yl)-12-oxa-3-thia-6-azatricyclo[6.4.1.0^4,13]trideca-1,4(13),7-trien-5-one] cannot be ordered by IC50: less than 1 nM for the first, less than 1 nM for the second.

`O=c1[nH]c(Cn2cccn2)c2c3c(c(-c4ccncn4)sc13)OCCC2` [Example 19, 7-(pyrazol-1-ylmethyl)-2-pyrimidin-4-yl-12-oxa-3-thia-6-azatricyclo[6.4.1.0^4,13]trideca-1,4(13),7-trien-5-one] and `Cc1n[nH]cc1-c1sc2c(=O)[nH]c(Cn3cccn3)c3c2c1OCCC3` [Example 20, 2-(3-methyl-1H-pyrazol-4-yl)-7-(pyrazol-1-ylmethyl)-12-oxa-3-thia-6-azatricyclo[6.4.1.0^4,13]trideca-1,4(13),7-trien-5-one] cannot be ordered by IC50: less than 1 nM for the first, less than 1 nM for the second.

`O=c1[nH]c(CN2CCCCC2)c2c3c(c(-c4cn[nH]c4)sc13)OCCC2` [Example 23, 5-(piperidin-1-ylmethyl)-1-(1H-pyrazol-4-yl)-4,6,7,8-tetrahydro-3H-9-oxa-2-thia-4-azabenzo[cd]azulen-3-one] and `O=c1[nH]c(CN2CC(O)C2)c2c3c(c(-c4cn[nH]c4)sc13)OCCC2` [Example 78, 7-[(3-hydroxyazetidin-1-yl)methyl]-2-(1H-pyrazol-4-yl)-12-oxa-3-thia-6-azatricyclo [6.4.1.0^4,13]trideca-1,4(13),7-trien-5-one] cannot be ordered by IC50: less than 1 nM for the first, less than 1 nM for the second.

`O=c1[nH]c(CN2CCC(F)(F)C2)c2c3c(c(-c4cn[nH]c4)sc13)OCCC2` [Example 25, 7-[(3,3-difluoropyrrolidin-1-yl)methyl]-2-(1H-pyrazol-4-yl)-12-oxa-13-thia-6-azatricyclo[6.4.1.0^4,13]trideca-1,4(13),7-trien-5-one] and `O=C1CCCN1Cc1[nH]c(=O)c2sc(-c3cn[nH]c3)c3c2c1CCCO3` [Example 41, 5-((2-oxopyrrolidin-1-yl)methyl)-1-(1H-pyrazol-4-yl)-4,6,7,8-tetrahydro-3H-9-oxa-2-thia-4-azabenzo[cd]azulen-3-one] cannot be ordered by IC50: less than 1 nM for the first, less than 1 nM for the second.

`CC(C)(O)c1[nH]c(=O)c2sc(-c3ccncc3)c3c2c1CCCO3` [Example 29, 5-(2-hydroxypropan-2-yl)-1-(pyridin-4-yl)-4,6,7,8-tetrahydro-3H-9-oxa-2-thia-4-azabenzo[cd]azulen-3-one] and `CC(C)(O)Cc1[nH]c(=O)c2sc(-c3cn[nH]c3)c3c2c1CCCO3` [Example 77, 5-(2-hydroxy-2-methylpropyl)-1-(1H-pyrazol-4-yl)-4,6,7,8-tetrahydro-3H-9-oxa-2-thia-4-azabenzo[cd]azulen-3-one] cannot be ordered by IC50: less than 1 nM for the first, less than 1 nM for the second.

`CC(NC1CCC1)c1[nH]c(=O)c2sc(-c3cn[nH]c3)c3c2c1CCCO3` (stereo not shown) [Example 34] and `O=c1[nH]c(C2(O)CCCC2)c2c3c(c(-c4cn[nH]c4)sc13)OCCC2` [Example 85, 5-(1-hydroxycyclopentyl)-1-(1H-pyrazol-4-yl)-4,6,7,8-tetrahydro-3H-9-oxa-2-thia-4-azabenzo[cd]azulen-3-one] cannot be ordered by IC50: less than 1 nM for the first, less than 1 nM for the second.

`Cc1[nH]c(=O)c2sc(-c3cn[nH]c3)c3c2c1CC(F)(F)CO3` [Example 43, 10,10-difluoro-7-methyl-2-(1H-pyrazol-4-yl)-12-oxa-3-thia-6-azatricyclo[6.4.1.0^4,13]trideca-1,4(13),7-trien-5-one] and `CC(C)(O)c1[nH]c(=O)c2sc(-c3cn[nH]c3)c3c2c1CC(F)(F)CO3` [Example 45, 10,10-difluoro-7-(1-hydroxy-1-methyl-ethyl)-2-(1H-pyrazol-4-yl)-12-oxa-3-thia-6-azatricyclo[6.4.1.0^4,13]trideca-1,4(13),7-trien-5-one] cannot be ordered by IC50: less than 1 nM for the first, less than 1 nM for the second.

`O=C(c1[nH]c(=O)c2sc(-c3cn[nH]c3)c3c2c1CCCO3)N1CCOCC1` [Example 52, 7-(morpholine-4-carbonyl)-2-(1H-pyrazol-4-yl)-12-oxa-3-thia-6-azatricyclo[6.4.1.0^4,13]-trideca-1,4(13),7-trien-5-one] and `O=C(c1[nH]c(=O)c2sc(-c3cn[nH]c3)c3c2c1CCCO3)N1CC(O)C1` [Example 53, 5-(3-hydroxyazetidine-1-carbonyl)-1-(1H-pyrazol-4-yl)-4,6,7,8-tetrahydro-3H-9-oxa-2-thia-4-azabenzo[cd]azulen-3-one] fall in the same range of IC50: 1 to 10 nM for the first, 1 to 10 nM for the second.

`CC(=O)N(C)c1[nH]c(=O)c2sc(-c3cn[nH]c3)c3c2c1CCCO3` [Example 56, N-methyl-N-(3-oxo-1-(1H-pyrazol-4-yl)-4,6,7,8-tetrahydro-3H-9-oxa-2-thia-4-azabenzo[cd]azulen-5-yl)acetamide] and `COC(=O)Cc1[nH]c(=O)c2sc(-c3cn[nH]c3)c3c2c1CCCO3` [Example 76, methyl 2-(3-oxo-1-(1H-pyrazol-4-yl)-4,6,7,8-tetrahydro-3H-9-oxa-2-thia-4-azabenzo[cd]azulen-5-yl)acetate] cannot be ordered by IC50: less than 1 nM for the first, less than 1 nM for the second.
